# System: HeLa cells
# Assay: Cell-based pharmacodynamic assay (CellTiter-Glo proliferation inhibition), HeLa
# Settings: human cervical cancer HeLa cells; 72 hours incubation; CellTiter-Glo luminescence; read-out: IC50 against HeLa cells
# Experimental: Complete media such as RPMI 1640 (Gibco, A1049101), EMEM (ATCC, 30-2003), DMEM (Gibco, C11995500CP), McCoy's 5A (Gibco, 16600082), and F-12K (ATCC, 30-2004) were prepared by supplementing with varying concentrations of FBS (Biological Industries, 04-002-1A) and 1% Penicillin-Streptomycin (Gibco, 15140122) and was thoroughly mixed. Tumor cell lines including HeLa (ATCC, CCL-2; EMEM + 10% FBS), TOV-21G (Cobioer, CBP60292; 1:1 mixture of MCDB 105 and Medium 199 + 15% FBS), OVCAR-3 (ATCC, HTB-161; RPMI 1640 + 20% FBS + 0.01 mg/ml bovine insulin), SK-OV-3 (ATCC, HTB-77; McCoy's 5A + 10% FBS), A2780 (Cobioer, CBP60283; RPMI 1640 + 10% FBS), OC316 (Cobioer, CBP60620; RPMI 1640 + 10% FBS), HuH-7 (Cobioer, CBP60202; DMEM + 10% FBS), SNU-398 (ATCC, CRL-2233; RPMI 1640 + 10% FBS), NCI-H2286 (ATCC, CRL-5938; RPMI 1640 + 5% FBS), NCI-H82 (ATCC, HTB-175; RPMI 1640 + 10% FBS), A549 (ATCC, CCL-185; F-12K + 10% FBS), SK-MEL-3 (ATCC, HTB-69; McCoy's 5A + 15% FBS), PSN-1 (Cobioer, CBP61215; RPMI 1640 + 10% FBS), LoVo (ATCC, CCL-229; F-12K + 10% FBS), DLD-1 (ATCC, CCL-221; RPMI 1640 + 10% FBS), HCT-15 (ATCC, CCL-225; RPMI 1640 + 10% FBS), A498 (ATCC, HTB-44; EMEM + 10% FBS), LNCaP (ATCC, CRL-1740; RPMI 1640 + 10% FBS), SNU-1 (ATCC, CRL-5971; RPMI 1640 + 10% FBS), SCC-9 (Cobioer, CBP60428; DMEM/F12 (1:1) + 10% FBS + 0.5 mM sodium pyruvate + 400 ng/ml hydrocortisone), SU-DHL-5 (ATCC, CRL-2958; RPMI 1640 + 10% FBS), Toledo (ATCC, CRL-2631; RPMI 1640 + 10% FBS), and SJCRH30 (ATCC, CRL-2061; RPMI 1640 + 10% FBS) were thawed. Cells were passaged approximately twice, and those in good growth condition (typically passages 4-6) were selected for experiments. The medium was aspirated, and the cells were washed once with 0.25% trypsin (Invitrogen, 25200-072). The waste liquid was discarded, and 3 mL of fresh trypsin was added to the culture flask for digestion. When the cells began to detach, 9 mL of complete medium was added to neutralize the trypsin digestion, and the mixture was gently mixed. The cell suspension was transferred to a centrifuge tube using a pipette and centrifuged at 1000 rpm for 5 minutes. The supernatant was discarded, and 5 mL of medium was added to the centrifuge tube to gently resuspend the cells evenly. The cell concentration was adjusted to 1×10^4/mL-3×10^4/mL using a cell counter (Beckman Coulter, Vi-cellTM XR). The cell suspension was added to a 96-well plate (Corning, 3903) at 100 µL/well. The plate was labeled with details such as cell name, seeding density, and date, and then placed in a CO2 incubator (Thermo, Thermo 3111) overnight. Test compounds were prepared as 20 mM stock solutions in DMSO (Sigma, D4540-1L) and added to the corresponding cell wells using an HPD300 automated dispenser according to the designed layout. The plates were incubated in a 37°C, 5% CO2 incubator for 72 hours. CellTiter-Glo Buffer was thawed at room temperature. The lyophilized CellTiter-Glo substrate was equilibrated to room temperature. The CellTiter-Glo Buffer was added to the CellTiter-Glo substrate and thoroughly mixed. The cell plates were removed and equilibrated to room temperature, and 50 µL of the mixed CellTiter-Glo reagent was added to each well. The plates were protected from light and shaken for 10 minutes, followed by incubation for 10 minutes. The plates were placed in an Enspire reader (luminescence measurement time: 0.5 s) to record luminescence results. The inhibition rate was calculated using the following formula: Inhibition rate (%) = (1 - (RLU_compound - RLU_blank) / (RLU_DMSO - RLU_blank)) × 100%. Dose-response curves were plotted using XLFit to calculate IC50 values. A four-parameter model was used: [fit = (A + ((B - A) / (1 + ((C/x) ^ D)))]. The test results for HeLa cells are shown in Table 1. Table 1: IC50 values of some test compounds against human cervical cancer HeLa cells
row,IC50 [µM],Compound
1,≤ 0.2,CN=C1CCCc2c1[nH]c1cccc(C(=O)OC)c21 [Compound E72]
2,≤ 0.5,COc1ccc2[nH]c3c(c2c1)CCCC3=NCC(=O)OC(C)(C)C [Compound E33]
3,≤ 0.2,Cc1cccc2[nH]c3c(c12)CCCC3=NCC(=O)OC(C)(C)C [Compound E52]
4,≤ 0.2,COC(=O)c1cccc2[nH]c3c(c12)CCCC3=NCC(=O)OC(C)(C)C [Compound E29]
5,≤ 0.2,Cc1ccc2[nH]c3c(c2c1)CCCC3=NCCOCCO [Compound E31]
6,≤ 0.2,Cc1cccc2[nH]c3c(c12)CCCC3=NCCO [Compound E54]
7,≤ 0.5,Cc1ccc2[nH]c3c(c2c1)CCCC3=NC1CC(C(N)=O)C1 (stereo not drawn) [Compound E09]
8,≤ 0.2,CCCCCN=C1CCCc2c1[nH]c1ccc(C)cc21 [Compound E57]
9,≤ 0.2,Cc1ccc2[nH]c3c(c2c1)CCCC3=NCCN [Compound E68]
10,≤ 0.2,Cc1ccc2[nH]c3c(c2c1)CCC/C3=N\[C@@H](Cc1ccccc1)C(=O)OC(C)(C)C [Compound E38]
11,≤ 0.2,COCCN=C1CCCc2c1[nH]c1ccc(C)cc21 [Compound E45]
12,≤ 0.2,Cc1ccc2[nH]c3c(c2c1)CCCC3=NC1CCN(S(=O)(=O)C(C)C)CC1C (stereo not drawn) [Compound E66]
13,≤ 0.5,CCC(CO)N=C1CCCc2c1[nH]c1ccc(C)cc21 (stereo not drawn) [Compound E64]
14,≤ 0.2,CSCCC(N=C1CCCc2c1[nH]c1ccc(C)cc21)C(=O)OC(C)(C)C (stereo not drawn) [Compound E71]
15,≤ 0.5,Cc1ccc2[nH]c3c(c2c1)C(C)CCC3=NCC(=O)OC(C)(C)C (stereo not drawn) [Compound E49]
16,≤ 0.2,Cc1ccc2[nH]c3c(c2c1)CCCC3=NC(Cc1ccc(O)cc1)C(=O)OC(C)(C)C (stereo not drawn) [Compound E40]

# Further lines, the molecule ahead of its results:
row,Compound,IC50 [µM]
1,CCOC(=O)c1cccc2c1c1c(n2C(=O)c2ccccc2)C(=O)CCC1 [Compound C04],≤ 0.2
2,N#Cc1cccc2[nH]c3c(c12)CCCC3=O [Compound B61],≤ 0.2
3,O=C1CCCc2c1[nH]c1cccc(C(=O)OC3CC(F)C3)c21 (stereo not drawn) [Compound B139],≤ 0.2
4,CN(C)S(=O)(=O)c1cccc2[nH]c3c(c12)CCCC3=O [Compound B76],≤ 0.2
5,CCOC(=O)c1cccc2c1c1c(n2C(=O)C2(c3ccc4c(c3)OC(F)(F)O4)CC2)C(=O)CCC1 [Compound C36],≤ 0.2
6,CCOC(=O)c1cccc2c1c1c(n2C(=O)c2ccccc2O)C(=O)CCC1 [Compound C31],≤ 0.2
7,O=C1CCCc2c1[nH]c1cccc(C(=O)OC3CCC34CC4)c21 (racemic) [Compound B136],≤ 0.2
8,CCOC(=O)c1cccc2c1c1c(n2C(=O)C#CC2(C)COC2)C(=O)CCC1 [Compound C43],≤ 0.2
9,O=C1CCCc2c1[nH]c1cccc(N3CCO[C@H](CO)C3)c21 [Compound B194],≤ 0.2
10,O=C1CCCc2c1[nH]c1cccc(C(=O)OCC(F)(F)F)c21 [Compound B46],≤ 0.2
11,[2H]C([2H])([2H])C([2H])([2H])OC(=O)c1cccc2[nH]c3c(c12)CCCC3=O [Compound B116],≤ 0.2
12,C#Cc1cccc2[nH]c3c(c12)CCCC3=O [Compound B68],≤ 0.2
13,COC(=O)c1ccc(F)c2[nH]c3c(c12)CCCC3=O [Compound B18],≤ 0.5
14,CC(C)(C)OC(=O)c1cccc2[nH]c3c(c12)CCCC3=O [Compound B55],≤ 0.2
15,CCOC(=O)c1cccc2c1c1c(n2C(=O)CCCCC(F)F)C(=O)CCC1 [Compound C51],≤ 0.2
16,CC(O)CCC(C)OC(=O)c1cccc2[nH]c3c(c12)CCCC3=O (stereo not drawn) [Compound B141],≤ 0.2
17,CC(C)(C)COC(=O)c1cccc2[nH]c3c(c12)CCCC3=O [Compound B40],≤ 0.2
18,CCOC(=O)c1cccc2c1c1c(n2C(=O)C2(C)CC2(F)F)C(=O)CCC1 (racemic) [Compound C28],≤ 0.2
19,O=C1CCCc2c1[nH]c1cccc(-c3cn[nH]c3)c21 [Compound B58],≤ 0.2
20,O=C1CCCc2c1[nH]c1cccc(C(=O)OCC3CC3)c21 [Compound B41],≤ 0.2
21,C#CC1(C(=O)Oc2cccc3[nH]c4c(c23)CCCC4=O)CC1 [Compound B121],≤ 0.5
22,CCOC(=O)c1cccc2[nH]c3c(c12)CCC(N1CCC1)C3=O (racemic) [Compound B132],≤ 0.5

row,Compound,IC50 [µM]
1,CCOC(=O)c1cccc2c1c1c(n2C(=O)C(CO)c2ccccc2)C(=O)CCC1 (racemic) [Compound C48],≤ 0.2
2,CCn1ncc(-c2cccc3[nH]c4c(c23)CCCC4=O)n1 [Compound B123],≤ 0.2
3,Cc1noc(-c2cccc3[nH]c4c(c23)CCCC4=O)n1 [Compound B69],≤ 0.2
4,O=C1CCCc2c1[nH]c1cccc(C(=O)Oc3cn[nH]c3)c21 [Compound B160],≤ 0.2
5,CCOCC(=O)n1c2c(c3c(C(=O)OCC)cccc31)CCCC2=O [Compound C14],≤ 0.2
6,CCOC(=O)c1cccc2c1c1c(n2C(=O)c2ccc(F)cc2)C(=O)CCC1 [Compound C19],≤ 0.2
7,O=C1CCCc2c1[nH]c1cccc(CO)c21 [Compound B56],≤ 0.2
8,Cn1cc(-c2cccc3[nH]c4c(c23)CCCC4=O)cn1 [Compound B154],≤ 0.2
9,COC(=O)c1c(OC)ccc2[nH]c3c(c12)CCCC3=O [Compound B91],≤ 0.2
10,O=C1CCCc2c1[nH]c1cccc(N3CC[C@H](CO)C3)c21 [Compound B196],≤ 0.2
11,CCC(=O)Oc1cccc2[nH]c3c(c12)CCCC3=O [Compound B32],≤ 0.5
12,CCCCNC1CCc2c([nH]c3cccc(C(=O)OCC)c23)C1=O (racemic) [Compound B103],≤ 0.2
13,O=C1CCCc2c1[nH]c1cccc(C(=O)OC3CCNC3)c21 (racemic) [Compound B27],≤ 0.5
14,CCOC(=O)c1cccc2c1c1c(n2C(=O)C2CCCCN2C)C(=O)CCC1 (racemic) [Compound C33],≤ 0.2
15,COC(=O)c1c(Cl)ccc2[nH]c3c(c12)CCCC3=O [Compound B89],≤ 0.2
16,O=C1CCCc2c1[nH]c1cccc(C(=O)OC3CCC(O)C3)c21 (stereo not drawn) [Compound B177],≤ 0.2
17,CC(C)n1ncc(-c2cccc3[nH]c4c(c23)CCCC4=O)n1 [Compound B124],≤ 0.2
18,Cc1ccc2[nH]c3c(c2c1)CCCC3=N[C@@H]1CCN(C)C1 [Compound E05R],≤ 0.2
19,O=C1CCCc2c1[nH]c1cccc(C(=O)OC(CF)CF)c21 [Compound B42],≤ 0.2
20,CS(C)(=O)=Nc1cccc2[nH]c3c(c12)CCCC3=O [Compound B80],≤ 0.5
21,O=C1CCCc2c1[nH]c1cccc(C(=O)OC3CCOCC3)c21 [Compound B30],≤ 0.2
22,CC1(C)CCN(c2cccc3[nH]c4c(c23)CCCC4=O)C1 [Compound B23],≤ 0.2

# From EP4711356A1, “TETRAHYDROCARBAZOLE DERIVATIVE, PHARMACEUTICAL COMPOSITION, AND USE THEREOF” (Nain Biotech (Hangzhou) Co., Ltd., priority 2023, dated 2024)
